Assay [1] deals with Neuronal acetylcholine receptor; alpha3/beta4 (Rattus norvegicus, UniProt P04757+P12392). The experiment in a line: Antagonist activity at rat alpha3beta4 nACh receptor expressed in Xenopus oocyte by voltage-clamp based electrophysiological assay. The assay is classed as cell-based.
Assay [2] concerns the target T1, Neuronal acetylcholine receptor subunit alpha-7 (Homo sapiens, UniProt P36544). As to the kind of experiment: Antagonist activity at human alpha7 nACh receptor expressed in Xenopus oocyte by voltage-clamp based electrophysiological assay. It is filed as cell-based.
Assay [3] addresses Neuronal acetylcholine receptor; alpha3/beta2 (Rattus norvegicus, UniProt P04757+P12390). The experiment in a line: Antagonist activity at rat alpha3beta2 nACh receptor expressed in Xenopus oocyte by voltage-clamp based electrophysiological assay. It is filed as cell-based.
In assay [4] the target is T2, Neuronal acetylcholine receptor; alpha4/beta2 (Rattus norvegicus, UniProt P09483+P12390). As to the kind of experiment: Antagonist activity at rat alpha4beta2 nACh receptor expressed in Xenopus oocyte by voltage-clamp based electrophysiological assay. The assay is classed as cell-based.
T2 sequence (P09483 whole entry): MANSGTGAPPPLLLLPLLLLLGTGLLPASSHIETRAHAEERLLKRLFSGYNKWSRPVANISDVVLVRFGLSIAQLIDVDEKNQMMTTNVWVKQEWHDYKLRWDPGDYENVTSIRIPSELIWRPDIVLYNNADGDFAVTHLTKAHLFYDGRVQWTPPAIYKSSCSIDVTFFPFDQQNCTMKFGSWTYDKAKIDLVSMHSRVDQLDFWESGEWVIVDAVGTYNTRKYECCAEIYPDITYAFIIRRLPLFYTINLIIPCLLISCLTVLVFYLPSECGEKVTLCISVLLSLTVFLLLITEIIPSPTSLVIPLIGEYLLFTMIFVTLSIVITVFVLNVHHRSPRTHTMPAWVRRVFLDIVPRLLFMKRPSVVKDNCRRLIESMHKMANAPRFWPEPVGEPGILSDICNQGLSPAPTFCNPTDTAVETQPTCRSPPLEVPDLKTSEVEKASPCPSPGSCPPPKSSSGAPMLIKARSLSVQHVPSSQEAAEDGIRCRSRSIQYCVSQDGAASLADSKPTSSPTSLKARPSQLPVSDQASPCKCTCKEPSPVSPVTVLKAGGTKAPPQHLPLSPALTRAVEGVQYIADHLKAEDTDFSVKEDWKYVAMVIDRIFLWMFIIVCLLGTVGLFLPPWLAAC
T2 sequence (P12390 whole entry): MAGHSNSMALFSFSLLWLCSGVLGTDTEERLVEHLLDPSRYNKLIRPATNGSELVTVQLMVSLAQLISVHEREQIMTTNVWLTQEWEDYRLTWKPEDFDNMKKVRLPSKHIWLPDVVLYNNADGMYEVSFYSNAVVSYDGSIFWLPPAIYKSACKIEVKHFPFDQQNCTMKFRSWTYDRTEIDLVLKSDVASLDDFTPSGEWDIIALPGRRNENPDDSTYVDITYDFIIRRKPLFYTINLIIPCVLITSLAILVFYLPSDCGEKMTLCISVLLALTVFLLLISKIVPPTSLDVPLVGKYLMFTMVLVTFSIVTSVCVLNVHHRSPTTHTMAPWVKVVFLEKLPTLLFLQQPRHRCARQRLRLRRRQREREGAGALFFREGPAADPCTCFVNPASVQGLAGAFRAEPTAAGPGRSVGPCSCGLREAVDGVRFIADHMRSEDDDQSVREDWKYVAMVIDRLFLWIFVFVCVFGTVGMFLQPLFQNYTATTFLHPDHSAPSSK
The target of assay [5] is T1, Neuronal acetylcholine receptor subunit alpha-7. The experiment in a line: Antagonist activity at nAChR alpha7 in human SH-SY5Y cells assessed as increase in intracellular calcium level preincubated for 10 mins followed by choline addition measured after 30 mins by FLIPR assay. It is filed as cell-based. On the technique in general: Calcium assays in cells follow changes in intracellular calcium, usually with a dye or a luminescent sensor.

Assay [6] deals with Neuronal acetylcholine receptor; alpha3/beta4 (Homo sapiens, UniProt P30926+P32297). The experiment in a line: Antagonist activity at nAChR alpha3beta4 in human SH-SY5Y cells assessed as increase in intracellular calcium level preincubated for 10 mins followed by nicotine addition measured after 30 mins by FLIPR assay. It is filed as cell-based.
Neuronal acetylcholine receptor; alpha3/beta4 (Homo sapiens, UniProt P30926+P32297), sequence (P30926 whole entry): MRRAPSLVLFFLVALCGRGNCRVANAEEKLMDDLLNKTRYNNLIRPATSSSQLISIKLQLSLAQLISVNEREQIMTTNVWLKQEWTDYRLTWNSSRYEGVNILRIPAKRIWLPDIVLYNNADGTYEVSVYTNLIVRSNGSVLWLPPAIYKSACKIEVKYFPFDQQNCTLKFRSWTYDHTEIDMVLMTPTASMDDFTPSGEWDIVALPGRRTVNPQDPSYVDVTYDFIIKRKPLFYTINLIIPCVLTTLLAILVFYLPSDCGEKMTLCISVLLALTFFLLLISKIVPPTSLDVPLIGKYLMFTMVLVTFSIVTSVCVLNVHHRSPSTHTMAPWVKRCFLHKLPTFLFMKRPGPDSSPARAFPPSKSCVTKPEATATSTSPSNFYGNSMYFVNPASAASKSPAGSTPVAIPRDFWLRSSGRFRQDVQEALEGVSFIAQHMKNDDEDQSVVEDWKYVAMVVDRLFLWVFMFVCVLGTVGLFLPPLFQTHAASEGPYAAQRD
Neuronal acetylcholine receptor; alpha3/beta4 (Homo sapiens, UniProt P30926+P32297), sequence (P32297 whole entry): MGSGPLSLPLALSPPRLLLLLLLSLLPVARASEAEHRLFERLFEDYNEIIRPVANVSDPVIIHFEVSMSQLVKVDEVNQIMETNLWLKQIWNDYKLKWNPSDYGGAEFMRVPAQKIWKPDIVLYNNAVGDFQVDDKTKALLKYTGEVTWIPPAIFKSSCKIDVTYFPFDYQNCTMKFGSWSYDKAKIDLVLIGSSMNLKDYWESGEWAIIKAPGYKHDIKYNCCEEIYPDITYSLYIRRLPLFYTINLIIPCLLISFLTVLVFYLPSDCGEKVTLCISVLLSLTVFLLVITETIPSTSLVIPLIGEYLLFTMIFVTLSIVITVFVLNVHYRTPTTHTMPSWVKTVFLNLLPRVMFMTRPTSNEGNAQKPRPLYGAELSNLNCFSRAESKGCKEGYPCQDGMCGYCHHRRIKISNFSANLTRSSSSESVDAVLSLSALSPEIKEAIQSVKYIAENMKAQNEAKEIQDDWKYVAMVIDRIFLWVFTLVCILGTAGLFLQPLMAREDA
Assay [7] concerns the target T3, Neuronal acetylcholine receptor; alpha4/beta2 (Homo sapiens, UniProt P17787+P43681). The experiment in a line: Antagonist activity at alpha4beta2 nAChRs (unknown origin) assessed as inhibition constant. The assay is classed as protein-complex assay.
Assay [8] addresses T1, Neuronal acetylcholine receptor subunit alpha-7. As to the kind of experiment: Antagonist activity at alpha7 nAChRs (unknown origin) assessed as inhibition constant.
Assay [9] concerns the target T3, Neuronal acetylcholine receptor; alpha4/beta2. The experiment in a line: Antagonist activity at alpha4beta2 nAChR (unknown origin). The assay is classed as protein-complex assay.
Assay [10] has as its target Sigma intracellular receptor 2 (Homo sapiens, UniProt Q5BJF2). The experiment in a line: Antagonist activity at sigma 2 receptor (unknown origin).
Assay [11] has as its target Histamine H1 receptor (Homo sapiens, UniProt P35367). The experiment in a line: Antagonist activity at H1 receptor (unknown origin).
Assay [12] concerns the target T2, Neuronal acetylcholine receptor; alpha4/beta2. As to the kind of experiment: Binding affinity to rat alpha4beta2 nAChR expressed in HEK cells assessed as inhibition constant measured after 2 hrs in the presence of [3H]epibatidine. It is filed as cell-based.
In assay [13] the target is Neuronal acetylcholine receptor subunit alpha-7 (Rattus norvegicus, UniProt Q05941). The experiment in a line: Binding affinity to rat alpha7 nAChR expressed in HEK cells assessed as inhibition constant measured after 2 hrs in the presence of [3H]epibatidine. The assay is classed as cell-based.
In assay [14] the target is T4, Muscarinic acetylcholine receptor M5 (Homo sapiens, UniProt P08912).
T4 sequence (P08912 whole entry): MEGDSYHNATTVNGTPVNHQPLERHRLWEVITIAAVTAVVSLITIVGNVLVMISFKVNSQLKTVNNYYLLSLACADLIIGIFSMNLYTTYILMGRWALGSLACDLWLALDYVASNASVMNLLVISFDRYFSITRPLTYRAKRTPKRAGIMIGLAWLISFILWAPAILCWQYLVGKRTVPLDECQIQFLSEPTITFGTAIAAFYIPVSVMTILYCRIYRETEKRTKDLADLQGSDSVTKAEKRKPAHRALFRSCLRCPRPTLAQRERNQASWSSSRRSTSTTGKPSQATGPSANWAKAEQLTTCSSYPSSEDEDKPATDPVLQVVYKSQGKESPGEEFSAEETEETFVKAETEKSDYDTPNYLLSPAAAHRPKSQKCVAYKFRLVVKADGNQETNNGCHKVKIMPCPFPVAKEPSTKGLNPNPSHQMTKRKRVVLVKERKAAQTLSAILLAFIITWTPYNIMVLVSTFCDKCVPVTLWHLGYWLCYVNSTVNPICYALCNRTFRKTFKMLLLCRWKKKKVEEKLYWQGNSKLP
As to the kind of experiment: Antagonist activity at muscarinic M5 receptor (unknown origin). The assay is classed as functional.

Assay [15] addresses Serotonin 3 (5-HT3) receptor. The experiment in a line: Antagonist activity at 5-HT3 receptor (unknown origin). It is filed as protein-complex assay, Homo sapiens.

Where a SMILES comes first, the peptide text is derived from it. Bridges are numbered along the chain shown (N, C = ends). Some results are limits rather than exact numbers.

T1 sequence (P36544 whole entry): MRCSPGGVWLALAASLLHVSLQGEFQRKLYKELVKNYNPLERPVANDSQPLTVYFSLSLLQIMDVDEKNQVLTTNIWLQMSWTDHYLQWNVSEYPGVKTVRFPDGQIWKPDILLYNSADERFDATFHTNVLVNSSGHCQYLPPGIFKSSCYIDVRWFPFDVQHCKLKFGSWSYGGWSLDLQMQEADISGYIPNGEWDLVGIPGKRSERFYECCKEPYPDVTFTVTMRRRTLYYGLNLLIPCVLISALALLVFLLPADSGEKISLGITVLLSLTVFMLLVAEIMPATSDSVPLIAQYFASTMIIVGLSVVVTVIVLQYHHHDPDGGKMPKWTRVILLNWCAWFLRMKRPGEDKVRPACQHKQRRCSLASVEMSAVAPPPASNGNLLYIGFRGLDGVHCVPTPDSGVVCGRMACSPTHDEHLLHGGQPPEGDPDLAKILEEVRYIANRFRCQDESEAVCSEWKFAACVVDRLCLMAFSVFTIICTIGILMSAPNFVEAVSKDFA
T3 sequence (P17787 whole entry): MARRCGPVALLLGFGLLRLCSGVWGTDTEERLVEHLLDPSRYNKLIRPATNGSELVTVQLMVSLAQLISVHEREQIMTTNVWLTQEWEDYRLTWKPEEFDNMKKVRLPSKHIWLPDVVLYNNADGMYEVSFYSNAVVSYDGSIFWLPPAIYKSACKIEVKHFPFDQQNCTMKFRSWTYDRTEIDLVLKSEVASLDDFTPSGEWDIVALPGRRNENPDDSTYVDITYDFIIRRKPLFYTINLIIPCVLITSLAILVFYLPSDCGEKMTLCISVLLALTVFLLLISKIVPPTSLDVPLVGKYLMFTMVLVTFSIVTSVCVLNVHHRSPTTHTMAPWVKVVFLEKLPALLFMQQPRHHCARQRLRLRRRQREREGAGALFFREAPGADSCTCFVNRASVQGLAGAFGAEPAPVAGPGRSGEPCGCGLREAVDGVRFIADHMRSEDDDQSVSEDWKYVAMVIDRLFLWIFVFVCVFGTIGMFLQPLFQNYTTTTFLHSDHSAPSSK
T3 sequence (P43681 whole entry): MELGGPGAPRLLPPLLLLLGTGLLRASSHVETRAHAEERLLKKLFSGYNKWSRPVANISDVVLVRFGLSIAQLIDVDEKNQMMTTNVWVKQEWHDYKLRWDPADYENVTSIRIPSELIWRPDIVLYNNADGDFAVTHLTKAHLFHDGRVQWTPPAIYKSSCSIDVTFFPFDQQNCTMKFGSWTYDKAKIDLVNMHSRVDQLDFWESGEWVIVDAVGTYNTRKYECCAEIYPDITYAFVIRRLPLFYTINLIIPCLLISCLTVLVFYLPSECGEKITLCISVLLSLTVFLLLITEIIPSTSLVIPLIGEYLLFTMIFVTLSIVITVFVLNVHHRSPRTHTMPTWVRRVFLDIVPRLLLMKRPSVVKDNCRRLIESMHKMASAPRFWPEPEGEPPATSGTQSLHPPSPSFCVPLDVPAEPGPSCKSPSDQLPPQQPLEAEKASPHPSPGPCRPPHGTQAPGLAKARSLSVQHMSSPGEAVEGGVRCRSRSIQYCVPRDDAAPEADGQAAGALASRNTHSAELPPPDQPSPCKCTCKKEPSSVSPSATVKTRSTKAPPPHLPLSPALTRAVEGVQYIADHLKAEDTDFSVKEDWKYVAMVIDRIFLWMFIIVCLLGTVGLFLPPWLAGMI
Sigma intracellular receptor 2, sequence (Q5BJF2 whole entry): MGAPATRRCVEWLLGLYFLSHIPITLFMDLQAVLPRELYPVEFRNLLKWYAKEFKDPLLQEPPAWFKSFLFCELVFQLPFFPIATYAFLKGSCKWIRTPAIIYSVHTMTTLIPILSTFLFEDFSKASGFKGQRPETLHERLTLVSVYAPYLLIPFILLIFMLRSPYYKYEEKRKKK
Neuronal acetylcholine receptor; alpha3/beta4 (Rattus norvegicus, UniProt P04757+P12392), sequence (P04757 whole entry): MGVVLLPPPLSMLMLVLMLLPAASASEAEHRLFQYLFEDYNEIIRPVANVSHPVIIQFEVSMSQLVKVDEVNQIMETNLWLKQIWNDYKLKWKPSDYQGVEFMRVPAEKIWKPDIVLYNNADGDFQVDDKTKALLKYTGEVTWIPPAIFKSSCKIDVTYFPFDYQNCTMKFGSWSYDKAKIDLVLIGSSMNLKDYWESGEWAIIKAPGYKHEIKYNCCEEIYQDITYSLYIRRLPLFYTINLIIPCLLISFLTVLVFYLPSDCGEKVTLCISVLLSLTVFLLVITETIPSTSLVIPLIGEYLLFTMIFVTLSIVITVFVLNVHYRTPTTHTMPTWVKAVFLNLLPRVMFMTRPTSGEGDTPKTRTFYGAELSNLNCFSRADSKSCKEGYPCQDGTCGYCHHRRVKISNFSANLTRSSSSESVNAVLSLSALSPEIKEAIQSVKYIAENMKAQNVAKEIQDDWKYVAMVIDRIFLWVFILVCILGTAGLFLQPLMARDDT
Neuronal acetylcholine receptor; alpha3/beta4 (Rattus norvegicus, UniProt P04757+P12392), sequence (P12392 whole entry): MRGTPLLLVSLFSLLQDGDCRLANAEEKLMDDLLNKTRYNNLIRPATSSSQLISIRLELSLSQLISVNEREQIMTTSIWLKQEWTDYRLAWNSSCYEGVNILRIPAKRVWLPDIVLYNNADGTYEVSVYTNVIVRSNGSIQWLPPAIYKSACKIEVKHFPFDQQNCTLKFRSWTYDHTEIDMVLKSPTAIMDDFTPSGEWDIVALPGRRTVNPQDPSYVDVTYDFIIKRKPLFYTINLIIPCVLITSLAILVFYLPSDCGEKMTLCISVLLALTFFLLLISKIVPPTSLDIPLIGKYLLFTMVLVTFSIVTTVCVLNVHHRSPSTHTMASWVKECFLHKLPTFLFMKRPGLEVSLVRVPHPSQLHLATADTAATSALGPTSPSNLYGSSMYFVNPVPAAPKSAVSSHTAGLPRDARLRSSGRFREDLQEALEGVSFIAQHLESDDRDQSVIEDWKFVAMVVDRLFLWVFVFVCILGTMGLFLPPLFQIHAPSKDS

The term IC50 denotes the concentration that gives 50% inhibition. `CC[C@H](C)[C@H](NC(=O)[C@H](Cc1cnc[nH]1)NC(=O)[C@@H]1CCCN1C(=O)[C@H](CC(N)=O)NC(=O)[C@H](CC(N)=O)NC(=O)[C@@H](NC(=O)[C@H](CC(N)=O)NC(=O)[C@H](CS)NC(=O)[C@H](C)NC(=O)[C@@H]1CCCN1C(=O)[C@H](Cc1cnc[nH]1)NC(=O)[C@H](CO)NC(=O)[C@H](CS)NC(=O)[C@H](CS)NC(=O)CN)C(C)C)C(=O)N[C@@H](CS)C(=O)O` (H-GCCSHPACNVNNPHIC-OH): the IC50 in [1] is 97 nM; in assay [2], 103 nM; in assay [3], 33 nM; in assay [4] it was above 100000 nM.

For `CC[C@H](C)[C@@H]1NC(=O)[C@H](CC(N)=O)NC(=O)[C@@H]2CCCN2C(=O)[C@H](CC(N)=O)NC(=O)[C@H](CC(C)C)NC(=O)[C@H](C(C)C)NC(=O)[C@H](CCCNC(=N)N)NC(=O)[C@@H]2CSSC[C@H](NC(=O)CNC(=O)[C@@H](N)CO)C(=O)N[C@@H](CSSC[C@@H](C(=O)O)NC1=O)C(=O)N[C@@H](CO)C(=O)N[C@@H](CC(N)=O)C(=O)N1CCC[C@H]1C(=O)N[C@@H](C)C(=O)N2` (H-SGCCSNPACRVLNPNIC-OH; disulfide 3-9, 4-17), the IC50 came to 2570 nM in assay [5] and 630 nM in assay [6].

Regarding `CC[C@H](C)[C@@H]1NC(=O)[C@H](CC(N)=O)NC(=O)[C@@H]2CCCN2C(=O)[C@H](CC(N)=O)NC(=O)[C@H](CC(C)C)NC(=O)[C@H](C(C)C)NC(=O)[C@H](Cc2ccccc2)NC(=O)[C@@H]2CSSC[C@H](NC(=O)CNC(=O)[C@@H](N)CO)C(=O)N[C@@H](CSSC[C@@H](C(=O)O)NC1=O)C(=O)N[C@@H](CO)C(=O)N[C@@H](CC(N)=O)C(=O)N1CCC[C@H]1C(=O)N[C@@H](C)C(=O)N2` (H-SGCCSNPACFVLNPNIC-OH; disulfide 3-9, 4-17), the IC50 in [5] is above 100000 nM; in assay [6], 410 nM.

One may read the Ki as the equilibrium dissociation constant of an inhibitor or competing ligand from its target. `CNC1(C)[C@H]2CC[C@H](C2)C1(C)C` (mixture of isomers): the Ki is 2500 nM in assay [7] and 6900 nM in assay [8].

`CN1C2CCCC1CC(Nc1ccccc1Br)C2` (centres undefined): the IC50 in assay [9] worked out at 300 nM; in [10], 418 nM; in assay [11] it was 201 nM; in assay [14] it was 325 nM; in assay [15], 600 nM. Besides, the Ki in assay [12] was determined as 477 nM; in [13], 222 nM.

`CC[C@H](C)[C@@H]1NC(=O)[C@H](CC(N)=O)NC(=O)[C@@H]2CCCN2C(=O)[C@H](CC(N)=O)NC(=O)[C@H](CC(N)=O)NC(=O)[C@H](C(C)C)NC(=O)[C@H](CCSC)NC(=O)[C@@H]2CSSC[C@H](NC(=O)CNC(=O)[C@@H](N)CO)C(=O)N[C@@H](CSSC[C@@H](C(=O)O)NC1=O)C(=O)N[C@@H](CO)C(=O)N[C@@H](CC(N)=O)C(=O)N1CCC[C@H]1C(=O)N[C@@H](C)C(=O)N2` (H-SGCCSNPACMVNNPNIC-OH; disulfide 3-9, 4-17): the results for the IC50 in [5] and in assay [6] were 242 nM and 440 nM, respectively.

These data come from ChEMBL document CHEMBL5325394, “What We Have Gained from Ibogaine: α3β4 Nicotinic Acetylcholine Receptor Inhibitors as Treatments for Substance Use Disorders” (J Med Chem, 2023).
